Data: US20250197423A1, “RAS INHIBITORS” (Revolution Medicines, Inc., priority 2022, published 2025)

What was measured:
[1] = from CO[C@@H](C)c1ncccc1-c1c(CC(C)(C)CO)c2cc(C3=CCCN(C[C@H](NC(=O)OC(C)(C)C)C(=O)N4CCC[C@@H](C(=O)O)N4)C3)ccc2n1CC(F)(F)F; ester bond; 18-membered ring; EDCI/HOBt/DIEA; DCM; 12.5 mM; 25.0 °C; 16.0 h; 3 steps
SW1573 = conditions: Canon et al. 2019; cited from earlier work

Structure (SMILES) | ring closure, isolated yield [1] | sensitivity of cell line to inhibitor (SW1573)
CO[C@@H](C)c1ncccc1-c1c2c3cc(ccc3n1CC(F)(F)F)C1=CCCN(C1)C[C@H](NC(=O)OC(C)(C)C)C(=O)N1CCC[C@H](N1)C(=O)OCC(C)(C)C2 | 63.7% | 
C=CC(=O)N1CCN(c2nc(=O)n(-c3c(C)ccnc3C(C)C)c3nc(-c4c(O)cccc4F)c(F)cc23)[C@@H](C)C1 [AMG510] |  | insensitive
